In the NIST ThermoML archive (doi:10.1016/j.jct.2004.09.007):
± gives the expanded uncertainty stated by the source.

What was measured:
[1] = molar heat capacity at constant pressure; conditions: 101.3 kPa, Liquid, Large sample (1 g) DSC
[2] = 298.15 K; 101.33 kPa; Liquid; Pycnometric method
[3] = molar heat capacity at constant pressure; xn = mol fraction of the nth substance listed; conditions: 101.3 kPa, Liquid, Large sample (1 g) DSC, x2 = 0

## CCCCO [butan-1-ol]
[1]; 285.15 K
  molar heat capacity at constant pressure: 168.64 ± 2.6 J/K/mol
[1]; 285.65 K
  molar heat capacity at constant pressure: 169.01 ± 2.6 J/K/mol
[1]; 288.15 K
  molar heat capacity at constant pressure: 170.39 ± 2.6 J/K/mol
[1]; 290.65 K
  molar heat capacity at constant pressure: 172 ± 2.7 J/K/mol
[1]; 293.15 K
  molar heat capacity at constant pressure: 173.56 ± 2.7 J/K/mol
[1]; 295.65 K
  molar heat capacity at constant pressure: 175.19 ± 2.7 J/K/mol
[1]; 298.15 K
  molar heat capacity at constant pressure: 176.82 ± 2.7 J/K/mol
[1]; 300.65 K
  molar heat capacity at constant pressure: 178.53 ± 2.8 J/K/mol
[1]; 303.15 K
  molar heat capacity at constant pressure: 180.42 ± 2.8 J/K/mol
[1]; 305.65 K
  molar heat capacity at constant pressure: 182.27 ± 2.8 J/K/mol
[1]; 308.15 K
  molar heat capacity at constant pressure: 184.15 ± 2.9 J/K/mol
[1]; 310.65 K
  molar heat capacity at constant pressure: 186.08 ± 2.9 J/K/mol
[1]; 313.15 K
  molar heat capacity at constant pressure: 187.99 ± 2.9 J/K/mol
[1]; 315.65 K
  molar heat capacity at constant pressure: 189.99 ± 2.9 J/K/mol
[1]; 318.15 K
  molar heat capacity at constant pressure: 192.06 ± 3 J/K/mol
[1]; 320.65 K
  molar heat capacity at constant pressure: 194.2 ± 3 J/K/mol
[1]; 323.15 K
  molar heat capacity at constant pressure: 196.35 ± 3 J/K/mol
[1]; 325.65 K
  molar heat capacity at constant pressure: 198.45 ± 3.1 J/K/mol
[1]; 328.15 K
  molar heat capacity at constant pressure: 200.45 ± 3.1 J/K/mol
[1]; 330.65 K
  molar heat capacity at constant pressure: 202.76 ± 3.1 J/K/mol
[1]; 333.15 K
  molar heat capacity at constant pressure: 204.94 ± 3.2 J/K/mol
[1]; 335.65 K
  molar heat capacity at constant pressure: 207.1 ± 3.2 J/K/mol
[1]; 338.15 K
  molar heat capacity at constant pressure: 209.17 ± 3.2 J/K/mol
[1]; 340.65 K
  molar heat capacity at constant pressure: 211.74 ± 3.3 J/K/mol
[1]; 343.15 K
  molar heat capacity at constant pressure: 213.82 ± 3.3 J/K/mol
[1]; 345.65 K
  molar heat capacity at constant pressure: 216.35 ± 3.4 J/K/mol
[1]; 348.15 K
  molar heat capacity at constant pressure: 218.32 ± 3.4 J/K/mol
[1]; 350.65 K
  molar heat capacity at constant pressure: 220.5 ± 3.4 J/K/mol
[1]; 353.15 K
  molar heat capacity at constant pressure: 222.81 ± 3.5 J/K/mol
[2]
  mass density: 805.82 ± 1 kg/m3

## CC(O)CCO (centres undefined) [1,3-butanediol]
[1]; 285.15 K
  molar heat capacity at constant pressure: 211.74 ± 3.3 J/K/mol
[1]; 285.65 K
  molar heat capacity at constant pressure: 212.17 ± 3.3 J/K/mol
[1]; 288.15 K
  molar heat capacity at constant pressure: 213.57 ± 3.3 J/K/mol
[1]; 290.65 K
  molar heat capacity at constant pressure: 215.06 ± 3.3 J/K/mol
[1]; 293.15 K
  molar heat capacity at constant pressure: 216.58 ± 3.4 J/K/mol
[1]; 295.65 K
  molar heat capacity at constant pressure: 218.04 ± 3.4 J/K/mol
[1]; 298.15 K
  molar heat capacity at constant pressure: 219.62 ± 3.4 J/K/mol
[1]; 300.65 K
  molar heat capacity at constant pressure: 221.14 ± 3.4 J/K/mol
[1]; 303.15 K
  molar heat capacity at constant pressure: 222.8 ± 3.5 J/K/mol
[1]; 305.65 K
  molar heat capacity at constant pressure: 224.37 ± 3.5 J/K/mol
[1]; 308.15 K
  molar heat capacity at constant pressure: 226.07 ± 3.5 J/K/mol
[1]; 310.65 K
  molar heat capacity at constant pressure: 227.65 ± 3.5 J/K/mol
[1]; 313.15 K
  molar heat capacity at constant pressure: 229.24 ± 3.5 J/K/mol
[1]; 315.65 K
  molar heat capacity at constant pressure: 230.82 ± 3.6 J/K/mol
[1]; 318.15 K
  molar heat capacity at constant pressure: 232.6 ± 3.6 J/K/mol
[1]; 320.65 K
  molar heat capacity at constant pressure: 234.14 ± 3.6 J/K/mol
[1]; 323.15 K
  molar heat capacity at constant pressure: 235.83 ± 3.6 J/K/mol
[1]; 325.65 K
  molar heat capacity at constant pressure: 237.52 ± 3.7 J/K/mol
[1]; 328.15 K
  molar heat capacity at constant pressure: 239.08 ± 3.7 J/K/mol
[1]; 330.65 K
  molar heat capacity at constant pressure: 240.59 ± 3.7 J/K/mol
[1]; 333.15 K
  molar heat capacity at constant pressure: 242.28 ± 3.8 J/K/mol
[1]; 335.65 K
  molar heat capacity at constant pressure: 243.86 ± 3.8 J/K/mol
[1]; 338.15 K
  molar heat capacity at constant pressure: 245.11 ± 3.8 J/K/mol
[1]; 340.65 K
  molar heat capacity at constant pressure: 247.19 ± 3.8 J/K/mol
[1]; 343.15 K
  molar heat capacity at constant pressure: 248.62 ± 3.9 J/K/mol
[1]; 345.65 K
  molar heat capacity at constant pressure: 250.13 ± 3.9 J/K/mol
[1]; 348.15 K
  molar heat capacity at constant pressure: 251.66 ± 3.9 J/K/mol
[1]; 350.65 K
  molar heat capacity at constant pressure: 253.24 ± 3.9 J/K/mol
[1]; 353.15 K
  molar heat capacity at constant pressure: 254.86 ± 4 J/K/mol
[2]
  mass density: 1000.42 ± 1 kg/m3

## CCCCO [butan-1-ol] + CC(O)CCO
[3]; 285.15 K
  molar heat capacity at constant pressure: 168.64 ± 2.6 J/K/mol
[3]; 285.65 K
  molar heat capacity at constant pressure: 169.01 ± 2.6 J/K/mol
[3]; 288.15 K
  molar heat capacity at constant pressure: 170.39 ± 2.6 J/K/mol
[3]; 290.65 K
  molar heat capacity at constant pressure: 172 ± 2.7 J/K/mol
[3]; 293.15 K
  molar heat capacity at constant pressure: 173.56 ± 2.7 J/K/mol
[3]; 295.65 K
  molar heat capacity at constant pressure: 175.19 ± 2.7 J/K/mol
[3]; 298.15 K
  molar heat capacity at constant pressure: 176.82 ± 2.7 J/K/mol
[3]; 300.65 K
  molar heat capacity at constant pressure: 178.53 ± 2.8 J/K/mol
[3]; 303.15 K
  molar heat capacity at constant pressure: 180.42 ± 2.8 J/K/mol
[3]; 305.65 K
  molar heat capacity at constant pressure: 182.27 ± 2.8 J/K/mol
[3]; 308.15 K
  molar heat capacity at constant pressure: 184.15 ± 2.9 J/K/mol
[3]; 310.65 K
  molar heat capacity at constant pressure: 186.08 ± 2.9 J/K/mol
[3]; 313.15 K
  molar heat capacity at constant pressure: 187.99 ± 2.9 J/K/mol
[3]; 315.65 K
  molar heat capacity at constant pressure: 189.99 ± 2.9 J/K/mol
[3]; 318.15 K
  molar heat capacity at constant pressure: 192.06 ± 3 J/K/mol
[3]; 320.65 K
  molar heat capacity at constant pressure: 194.2 ± 3 J/K/mol
[3]; 323.15 K
  molar heat capacity at constant pressure: 196.35 ± 3 J/K/mol
[3]; 325.65 K
  molar heat capacity at constant pressure: 198.45 ± 3.1 J/K/mol
[3]; 328.15 K
  molar heat capacity at constant pressure: 200.45 ± 3.1 J/K/mol
[3]; 330.65 K
  molar heat capacity at constant pressure: 202.76 ± 3.1 J/K/mol
[3]; 333.15 K
  molar heat capacity at constant pressure: 204.94 ± 3.2 J/K/mol
[3]; 335.65 K
  molar heat capacity at constant pressure: 207.1 ± 3.2 J/K/mol
[3]; 338.15 K
  molar heat capacity at constant pressure: 209.17 ± 3.2 J/K/mol
[3]; 340.65 K
  molar heat capacity at constant pressure: 211.74 ± 3.3 J/K/mol
[3]; 343.15 K
  molar heat capacity at constant pressure: 213.82 ± 3.3 J/K/mol
[3]; 345.65 K
  molar heat capacity at constant pressure: 216.35 ± 3.4 J/K/mol
[3]; 348.15 K
  molar heat capacity at constant pressure: 218.32 ± 3.4 J/K/mol
[3]; 350.65 K
  molar heat capacity at constant pressure: 220.5 ± 3.4 J/K/mol
[3]; 353.15 K
  molar heat capacity at constant pressure: 222.81 ± 3.5 J/K/mol
